The supplement of paper PMC7661543
± gives the standard deviation of the averaged measurements.

Key:
Test in all cases: relative cell number vs DMSO control (72 h) (% of DMSO); higher = less growth inhibition (more cells)
Settings in all cases: sgRNA knockout: sgNT
[1] = tested on: ZR-75-1
Experimental: (§1)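 QMAP-Seq: a pool of 5 breast cancer cell lines (ZR-75-1, SKBR3, HCC-38, MDA-MB-231, BT-20), each carrying 12 doxycycline-inducible Cas9 sgRNA perturbations (11 knockouts plus non-targeting sgNT), was treated with compounds for 72 h at four 10-fold doses (10 nM-10 uM or 1 nM-1 uM range). Barcodes were amplified and sequenced, and cell number was interpolated from 293T spike-in standard curves. The result is expressed as % of the median of DMSO wells. Two biological replicates.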

[2] = tested on: HCC-38
Experimental: as §1

[3] = tested on: BT-20
Experimental: as §1

[4] = tested on: SKBR3
Experimental: as §1

[5] = tested on: MDA-MB-231
Experimental: as §1

| Compound | relative cell number ([1]; 10 nM) | relative cell number ([1]; 100 nM) | relative cell number ([1]; 1000 nM) | relative cell number ([1]; 10000 nM) | relative cell number ([2]; 10 nM) | relative cell number ([2]; 100 nM) | relative cell number ([2]; 1000 nM) | relative cell number ([2]; 10000 nM) | relative cell number ([3]; 10 nM) | relative cell number ([3]; 100 nM) | relative cell number ([3]; 1000 nM) | relative cell number ([3]; 10000 nM) | relative cell number ([4]; 10 nM) | relative cell number ([4]; 100 nM) | relative cell number ([4]; 1000 nM) | relative cell number ([4]; 10000 nM) | relative cell number ([5]; 10 nM) | relative cell number ([5]; 100 nM) | relative cell number ([5]; 1000 nM) | relative cell number ([5]; 10000 nM) |
| --- | --- | --- | --- | --- | --- | --- | --- | --- | --- | --- | --- | --- | --- | --- | --- | --- | --- | --- | --- | --- |
| CC(C)(C#N)c1ccc(N2C(=O)OCc3cnc4ccc(-c5cnc6ccccc6c5)cc4c32)cc1 | 86.6 ± 16 | 116 ± 19 | 55.1 ± 1.7 | 38.4 ± 14 | 103 ± 28 | 97 ± 16 | 82.6 ± 15 | 33.2 ± 4.7 | 98.1 ± 10 | 102 ± 7 | 81.3 ± 1.9 | 50.8 ± 23 | 101 ± 19 | 100 ± 3 | 79.39 ± 0.72 | 49 ± 9.6 | 104 ± 25 | 94.3 ± 3.9 | 82.3 ± 23 | 49.7 ± 0.79 |
| CC(C)(C(=O)NCC(F)(F)C(F)(F)F)C(=O)N[C@@H]1C(=O)Nc2ccccc2-c2ccccc21 | 76.9 ± 11 | 130 ± 2.6 | 92.1 ± 1.7 | 103 ± 30 | 118 ± 3.9 | 99.1 ± 4.5 | 107 ± 3.9 | 109 ± 13 | 102 ± 5.3 | 109 ± 5.9 | 107 ± 33 | 121 ± 1.3 | 91 ± 1.3 | 133 ± 6.6 | 99 ± 36 | 109 ± 22 | 85.7 ± 7.5 | 122 ± 30 | 104 ± 16 | 97.7 ± 28 |
| CC(C)CC(=O)Nc1n[nH]c2c1CN(C(=O)C1CCN(C)CC1)C2(C)C | 70.6 ± 6.3 | 60.4 ± 13 | 31.4 ± 19 | 23.7 ± 10 | 112 ± 16 | 76.6 ± 10 | 42.4 ± 2 | 20.3 ± 0.83 | 114 ± 22 | 66.5 ± 1.9 | 43.3 ± 19 | 24.3 ± 1 | 108 ± 26 | 61.4 ± 27 | 30 ± 7.5 | 11.8 ± 1.6 | 112 ± 3.1 | 59.02 ± 0.15 | 18.8 ± 1.3 | 11 ± 4.8 |
| CC(C)OC(=O)C1=CN(C(=O)c2ccc(F)c(F)c2)CC(C)(C)c2c1[nH]c1ccccc21 | 119 ± 27 | 123 ± 59 | 101 ± 44 | 102 ± 58 | 94.8 ± 12 | 89.2 ± 8.8 | 95.2 ± 4.8 | 90.8 ± 6 | 98.9 ± 6.3 | 70 ± 5.8 | 105 ± 24 | 99.6 ± 25 | 81.3 ± 2.4 | 98.8 ± 33 | 77.9 ± 12 | 89.9 ± 24 | 86.2 ± 4.9 | 72.1 ± 4.9 | 83.4 ± 6.3 | 130 ± 24 |
| COc1cc2nc(N3CCCN(C)CC3)nc(NC3CCN(Cc4ccccc4)CC3)c2cc1OC | 102 ± 40 | 102 ± 45 | 109 ± 6.8 | 2.54 ± 0.52 | 111 ± 19 | 104 ± 19 | 85.8 ± 5.5 | 5.39 ± 3.1 | 82 ± 20 | 91.6 ± 8.2 | 84.4 ± 5.3 | 5.57 ± 2.9 | 98.3 ± 25 | 93.735 ± 0.032 | 75 ± 25 | 5.97 ± 3.4 | 123 ± 5.1 | 94.5 ± 18 | 80.2 ± 13 | 9.21 ± 8.3 |
| COc1ccc(-c2ccc3c(N4CCOCC4)nc(N4C[C@@H](C)O[C@@H](C)C4)nc3n2)cc1CO | 65.9 ± 21 | 116 ± 21 | 101 ± 4.9 | 36.1 ± 2.1 | 100 ± 8.5 | 115 ± 5.9 | 92.1 ± 13 | 48.9 ± 3.5 | 110 ± 9.1 | 119 ± 17 | 77.5 ± 5.5 | 57.6 ± 7.1 | 84.2 ± 39 | 110 ± 26 | 80.7 ± 2.5 | 51.5 ± 6.7 | 85.2 ± 1.6 | 166 ± 26 | 113 ± 5.1 | 57.7 ± 19 |
| CS(=O)(=O)c1cccc(CNc2nc(Nc3ccc4c(c3)CCC(=O)N4)ncc2C(F)(F)F)c1 | 98.8 ± 47 | 170 ± 92 | 80.9 ± 4.7 | 45.1 ± 2.2 | 96.9 ± 21 | 119 ± 18 | 86.8 ± 25 | 50.5 ± 4.3 | 118 ± 28 | 145 ± 3.4 | 105.9 ± 0.85 | 57 ± 3.3 | 85.7 ± 19 | 110.3 ± 0.38 | 87.3 ± 18 | 54.4 ± 9.9 | 122 ± 34 | 123.1 ± 0.038 | 103 ± 6.8 | 32.1 ± 9.6 |
| C[C@@H](Oc1cc(-n2cnc3ccc(CN4CCN(C)CC4)cc32)sc1C(N)=O)c1ccccc1C(F)(F)F | 112 ± 14 | 22.1 ± 8.8 | 27.7 ± 3.9 | 29.7 ± 12 | 23.8 ± 3.1 | 16.7 ± 4.5 | 17.3 ± 0.54 | 17.6 ± 4.5 | 48.1 ± 11 | 26.1 ± 17 | 31.8 ± 0.68 | 23.3 ± 2.4 | 13.6 ± 4.1 | 13.5 ± 1.8 | 13.4 ± 4.3 | 23.5 ± 4.7 | 40.66 ± 0.27 | 19.5 ± 2.2 | 12.5 ± 0.32 | 8.66 ± 5.4 |
| C[C@@H]1CN(CC(=O)Nc2ccc3c(c2)Cc2cccc(-c4cc(=O)cc(N5CCOCC5)o4)c2S3)C[C@H](C)O1 | 95.6 ± 6 | 92.7 ± 26 | 80.8 ± 9.4 | 38.7 ± 11 | 89.9 ± 3.7 | 110 ± 4.4 | 76.9 ± 3.3 | 64.3 ± 9.2 | 73.7 ± 24 | 119 ± 3.5 | 108 ± 8.4 | 62.4 ± 3.5 | 86.5 ± 26 | 95.9 ± 33 | 87.7 ± 36 | 33.6 ± 4.6 | 111 ± 4.9 | 85.1 ± 5.2 | 95.9 ± 20 | 59.4 ± 6.4 |
| C[C@@]1(C(=O)Nc2ccc(F)nc2)CCCN1c1nc(Nc2cc(C3CC3)n[nH]2)c2cccn2n1 | 92.7 ± 27 | 73.9 ± 16 | 36 ± 18 | 30.8 ± 12 | 87.8 ± 4.9 | 82.5 ± 10 | 81.5 ± 2.7 | 45.49 ± 0.25 | 77.5 ± 8.7 | 89.5 ± 17 | 90 ± 11 | 67.5 ± 16 | 72 ± 24 | 89.9 ± 15 | 74.8 ± 14 | 66 ± 6.5 | 126 ± 33 | 96.4 ± 18 | 70.4 ± 5.7 | 43.2 ± 7.3 |
| Cc1[nH]c(/C=C2\C(=O)Nc3ccc(S(=O)(=O)N(C)c4cccc(Cl)c4)cc32)c(C)c1C(=O)N1CCN(C)CC1 | 95.1 ± 14 | 97.4 ± 3.6 | 54 ± 27 | 37.5 ± 6 | 109 ± 14 | 92.58 ± 0.79 | 90.6 ± 7.8 | 55.2 ± 1.4 | 89.8 ± 4.6 | 95 ± 19 | 74.8 ± 2.8 | 60.9 ± 35 | 90.1 ± 7.7 | 102 ± 8.9 | 87.4 ± 16 | 59.6 ± 16 | 134 ± 62 | 94.8 ± 19 | 95.3 ± 23 | 42.5 ± 11 |
| Cc1c(Cn2c(C)nc3c(C(=O)O)cc(N4CCOCC4)cc32)cccc1C(F)(F)F | 126 ± 2.5 | 98.6 ± 13 | 72.1 ± 7 | 108 ± 53 | 115 ± 17 | 85.5 ± 2.4 | 108 ± 19 | 102 ± 10 | 100 ± 7.3 | 117 ± 23 | 87 ± 10 | 82.1 ± 1.1 | 137 ± 8 | 123 ± 22 | 98.4 ± 25 | 99.1 ± 8.4 | 105 ± 4.5 | 123 ± 22 | 93.9 ± 27 | 112 ± 23 |
